Source: patent US20220168258A1, “METHOD FOR TREATING FEMALE NON-SMOKERS WITH NON-SMALL CELL LUNG CANCER” (Lantern Pharma Inc., priority 2019, published 2022)

Columns and labels:
[1] = system: chemotherapy-induced toxicities; details: human, in vivo
[2] = system: NSCLC adenocarcinoma patients
[3] = system: female adenocarcinoma patients; details: double-blind, placebo-controlled trial, Japan

With disodium 2′-dithio-bis-ethane as the substance, how does the anemia [1] read?
The anemia was “reduced anemia”.

And the chemotherapy-induced kidney toxicity [1]?
The chemotherapy-induced kidney toxicity was “protection against chemotherapy-induced kidney toxicity”.

And the “neuropathy and other chemotherapy-induced toxicities” value [1]?
The value was “protect against neuropathy & other chemotherapy-induced toxicities”.

And the “survival in all genders and smoking status groups” value ([2]; all genders and smoking status groups)?
Its value is “marginally increased survival”.

What about the “clinical efficacy endpoints and subgroup responses” value ([2]; background statement) of the same substance?
Its value is “did not meet clinical efficacy endpoints”.

And the “survival in female non-smokers” value ([2]; female non-smokers, increase from 13 months)?
Its value is 25 months.

And the “percentage of patients undergoing treatment failure (FIG. 3)” value ([2]; females non-smokers)?
Its value is “the least”.

And the 2-year survival ([2]; females with advanced adenocarcinoma of the lung receiving paclitaxel/cisplatin)?
Its 2-year survival is 51.4%.

What about the overall survival ([2]; females with advanced adenocarcinoma of the lung receiving paclitaxel/cisplatin, subgroup of 114 female patients, retrospective analysis) of the same substance?
The overall survival was 25.0 months.

What about the “overall survival benefit (FIG. 1)” value ([2]; females, non-smokers and female non-smokers receiving Cisplatin/Paclitaxel) of the same substance?
The value was “remarkable survival benefit”.

What about the “percentage of patients undergoing treatment failure (FIG. 2)” value ([2]; non-smokers) of the same substance?
The value was “the least”.

And the “HR (overall survival)” value ([2]; subgroup of 114 female patients, retrospective analysis, p-value=0.0477)?
The value was 0.579.

What about the “survival result in female adenocarcinoma patients” value [3] of the same substance?
The value was “Consistent statistically significant results”.
